Read-outs that look alike come from different tables or passages of the source.
Assays:
[1] = tested on: PDE type I; experiment: PDE inhibiting activity, type I; format: biochemical, dog; conditions: PDE purified from canine aorta; 1 µM substrate cGMP or cAMP; read-out: Inhibition Activity IC50 (µM) Type I
Method: On the basis of the method of Lugnier et al. (Biochem. Pharmacol., 35, 1743-1751, 1986), PDE was purified from the aorta in a dog. The canine aorta was minced and homogenized with a Waring Blender and a glass homogenizer in six volumes of a Tris-HCl buffer solution (pH 7.5, 20 mM) containing 2 mM magnesium acetate, 5 mM ethylenediaminetetraacetic acid (EDTA), 100 µg/mL of phenylmethylsulforyl fluoride and 15 mM 2-mercaptoethanol (2-ME), and centrifuged at 1200 x g for 30 min. The supernatant was separated and salted out with ammonium sulfate which was added to 45% saturation. The resulting precipitated fraction was resuspended in a Tris-HCl buffer solution (pH 7.5, 20 mM) containing 2 mM magnesium acetate and 1 mM 2-ME, dialyzed overnight and applied to a DEAE-trisacryl column (DEAE […] M:IBF). By elution with a sodium chloride gradient (0 - 0.4 M), PDE types V and III were separated from the other isozymes. The supernatant fraction of 45% saturated ammonium sulfate was further mixed with ammonium sulfate to 65% saturation and salted out. The resulting precipitated fraction was similarly applied to the DEAE-trisacryl column and eluted by a sodium chloride gradient (0 - 0.4 M) so as to separate PDE type I.
The thus obtained PDE types V, III and I were measured for their activity in accordance with the method of Thompson et al. (Adv. Cyclic Nucleotide Res., 10, 69-72, 1979) and the method of Wells et al. (Biochim. Biophys. Acta, 384, 430-443, 1975). Specifically, a purified PDE sample was added to 50 mM Tris-HCl buffer solution (pH 7.5) containing 1 µM of substrate cGMP or cAMP (containing tritium-labelled cGMP or cAMP), 1 mM EGTA and 2 mM magnesium acetate. For PDE activity measurement, enzymatically produced 5' GMP or 5' AMP was further hydrolyzed into guanosine or adenosine with snake venom and separated from the substrate by means of an ion-exchange resin (Dowex 1-X2), followed by measuring with a scintillation counter. The activity of each test compound was determined as a percentage of the PDE activity measured when it was added as a dimethyl sulfoxide solution (DMSO) and its IC50 (50% inhibition concentration) was calculated by the probit method. The final concentration of DMSO was adjusted to be no more than 2% in consideration of the effect on PDE activity.

[2] = target: T1, PDE type V (Canis lupus familiaris, UniProt O77746); experiment: PDE inhibiting activity, type V; format: biochemical, dog; conditions: PDE purified from canine aorta, 1 µM substrate cGMP or cAMP
T1 construct: By elution with a sodium chloride gradient (0 - 0.4 M), PDE types V and III were separated from the other isozymes; from tissue; host or cells: canine aorta

[3] = Absorption upon intranasal administration to rats; format: in vivo, Male wistar rats
Excerpt: Male wistar rats (eight weeks age) were anesthetized by intraperitoneal injection of 1 g/kg of urethane. Neck was incised to expose a trachea and polyethylene tube (SP 120; Natsume Seisakusho) was inserted into the trachea. Then a part of esophagus was opened by cutting and a polyethylene tube of the same diameter was inserted to the direction of choana and the end was tightly sealed with absorbent cotton and adhesive. In order to prevent a leakage of drug solution from nasopalatine canal, said canal of upper chin opening to mouth was closed by synthetic adhesive. The drug was dissolved in a 0.1% tartaric acid solution and the drug of 500 µl/kg was administered by a micropipette from outer nasal cavity followed by closing both outer nasal cavities immediately. As a control, the rat to which the drug was intravenously injected was prepared. After the injection; aliquot of blood was collected from time to time from jugular vein using a heparin-treated syringe and centrifuged to give plasma. Certain amount of the resulting plasma was collected, extracted with tert-butyl-methyl-ether three times, and the organic phase was evaporated to dryness and dissolved in the initial solvent for HPLC. A certain amount thereof was injected into an HPLC connected to an ultraviolet absorption detector and the drug concentration in the plasma was measured by reversed phase column. Time for arriving the maximum blood concentration (Tmax), mean residence time (MRT) and mean absorption time (MAT) were calculated from the measured value.

[4] = tested on: smooth muscle of cavernous body of rabbits; experiment: Enhancement of nitroprusside relaxation of isolated cavernous body strips; conditions: Final Added Amount 1000 nM; relaxation by 1 µM nitroprusside compared with solvent
Method: Rabbits were anesthetized by an intravenous injection of 40-50 mg/kg of pentobarbital (Nembutal™ manufactured by Dainippon Pharmaceutical Co., Ltd.), blood was drained out by incision of carotid artery, and penis was taken out and placed in an ice-cooled nutrient solution (Krebs bicarbonate containing 118 mM of NaCl, 4.7 mM of KCl, 1.2 mM of KH2PO4, 1.2 mM of MgSO4.7H2O, 1.5 mM of CaCl2, 25 mM of NaHCO3, 11 mM of glucose and 0.023 mM of EDTA·2Na). After the tissues around the albuginea were incised in a nutrient solution, the albuginea was incised to prepare cavernous body of the penis. The cavernous body was cut and both ends of the strips of about 1 cm length were ligated by nylon yarn. One end was fixed to a supporting rod, transferred into a 20-ml Magnus tube which was filled with the nutrient solution, passed with a mixed gas of 95% oxygen and 5% carbon dioxide and kept at 37 °C while another end of the strip was connected to an isometric transducer (TB-611T; NIHON KOHDEN CORP.) placed on the upper area and a stress load of about 2 g was applied. After stabilization of 60 minutes or longer, strips were contracted with 10 µM of phenylephrine in the presence of 5 µM of guanetidine and 1 µM of atropine and, after stabilization, 1 µM or 100 µM of nitroprusside was added whereby relaxation by nitroprusside was ascertained. […] Rate of relaxation by 1 µM of nitroprusside after addition of the sample was compared with that after addition of the solvent and the increasing rate was calculated. […]

[5] = Absorption by percutaneous administration in rats; format: in vivo; conditions: hairless rats, Dose 10 mg/kg
Method: Abdominal skin of hairless rats (eight weeks age, Nippon SLC) was wiped with 70% ethanol, and 0.25 ml/kg of a drug solution (40 mg/ml DMSO) was applied to an area of 8 cm^2 (2 x 4 cm) and the applied area was coated with a film coating agent (Permiaid S, Nitto Medical) and fixed with an adhesive bandage (Elastopore, Nichiban). After application of the drug solution, aliquot of blood was collected from time to time using a heparin-treated syringe from jugular vein and centrifuged to give plasma. Aliquot plasma was extracted with tert-butyl-methyl-ether three times, and the organic phase was evaporated to dryness and dissolved in the initial solvent for HPLC. A certain amount thereof was injected into a HPLC connected to an ultraviolet absorption detector and the drug concentration in the plasma was measured by means of a reversed phase column. Pharmacokinetic parameters were calculated from the measured data by the same manner as in Experiment 3.

[6] = read-out: Inhibition Activity IC50 (µM) Type V
[7] = male, Wistar, rat, in vivo, inhaled or intranasal, intranasal, Dose 1.0 mg/kg

Compound	IC50 [1]	IC50 [2, 6]	other results
O=c1ccn2c3ccc(Br)cc3c3cc(OCc4cccnc4)cc1c32 [Example 25, 10-bromo-2-(3-pyridylmethyloxy)-4H-pyrido[3,2,1-jk]carbazol-4-one]	> 100 µM	0.011 µM	
O=c1ccn2c3ccc(Br)cc3c3cc(OCc4ncon4)cc1c32 [Example 27, 10-bromo-2-(1,2,4-oxadiazol-3-yl)methyloxy-4H-pyrido[3,2,1-jk]carbazol-4-one]	> 30 µM	0.021 µM	
CC(=O)Oc1cc2c(=O)ccn3c4ccc(Br)cc4c(c1)c23 [Example 28, 2-acetoxy-10-bromo-4H-pyrido[3,2,1-jk]carbazol-4-one]	> 100 µM	0.1 µM	
CCCC(=O)COc1cc2c(=O)ccn3c4ccc(Br)cc4c(c1)c23 [Example 29, 10-bromo-2-(2-oxopentyloxy)-4H-pyrido[3,2,1-jk]carbazol-4-one]	> 30 µM	0.0047 µM	
CC(C)(C)OC(=O)COc1cc2c(=O)c(Cc3cccnc3)cn3c4cc(Br)ccc4c(c1)c23 [Example 32, 9-bromo-2-t-butoxycarbonylmethyloxy-5-(3-pyridylmethyl)-4H-pyrido[3,2,1-jk]carbazol-4-one]	> 30 µM	0.091 µM	
CC(=O)OCc1cncc(COc2cc3c(=O)c(Cc4cccnc4)cn4c5cc(Br)ccc5c(c2)c34)c1 [Example 35, 2-(5-acetoxymethyl-3-pyridylmethyloxy)-9-bromo-5-(3-pyridylmethyl)-4H-pyrido[3,2,1-jk]carbazol-4-one]	> 30 µM	0.088 µM	
CC(=O)Oc1cc2c(=O)c(Cc3cccnc3)cn3c4ccccc4c(c1)c23 [Example 42, 2-acetoxy-5-(3-pyridylmethyl)-4H-pyrido[3,2,1-jk]carbazol-4-one]	> 30 µM	0.2 µM	
CC(=O)Oc1ccc2c3cccc4c(=O)c(Cc5cccnc5)cn(c2c1)c43 [Example 45, 9-acetoxy-5-(3-pyridylmethyl)-4H-pyrido[3,2,1-jk]carbazol-4-one]	> 30 µM	0.06 µM	
CCCc1nn(C)c2c(=O)[nH]c(-c3cc(S(=O)(=O)N4CCN(C)CC4)ccc3OCC)nc12.O=C(O)CC(O)(CC(=O)O)C(=O)O [sildenafil, 5-[2-ethoxy-5-(4-methylpiperazin-1-ylsulfonyl)phenyl]-1-methyl-3-propyl-6,7-dihydro-1H-pyrazolo[4,3-d]pyrimidin-7-one-citrate, reference compound]	0.46 µM		MRT as compared with oral administration ([3]; intranasal administration): same; Tmax as compared with oral administration ([3]; intranasal administration): same or shortened; MAT ([3]; intranasal, Dose 1.0 mg/kg): 1 to 2 h; bioavailability ([3]; male, Wistar, rat, in vivo, inhaled or intranasal, intranasal administration): ~100%; MRT [3, 7]: 2 to 3 h; Tmax [3, 7]: 0.2 to 0.5 h; Enhancing Rate of Relaxation (%) [4]: 189.1%; MAT [5]: 14.3 h; MRT ([5]; rat, in vivo): 14.7 h; Tmax ([5]; rat, in vivo): 1 h; IC50 ([2]; Inhibition Activity IC50 (µM) Type V): 0.0018 µM

More lines, main results first:

IC50 [1]	IC50 [2, 6]	Compound	other results
> 30 µM	0.01 µM	O=c1ccn2c3ccc(Br)cc3c3cc(OCc4ccccc4)cc1c32 [Example 26, 2-benzyloxy-10-bromo-4H-pyrido[3,2,1-jk]carbazol-4-one]	
> 30 µM	0.0047 µM	COc1cc2c(=O)c(Cc3cccnc3)cn3c4cc(Br)ccc4c(c1)c23 [Example 30, 9-bromo-2-methoxy-5-(3-pyridylmethyl)-4H-pyrido[3,2,1-jk]carbazol-4-one]	
> 30 µM	0.0032 µM	O=C(O)COc1cc2c(=O)c(Cc3cccnc3)cn3c4cc(Br)ccc4c(c1)c23 [Example 33, 9-bromo-2-carboxymethyloxy-5-(3-pyridylmethyl)-4H-pyrido[3,2,1-jk]carbazol-4-one]	
> 30 µM	0.021 µM	O=c1c(Cc2cccnc2)cn2c3cc(Br)ccc3c3cc(OCc4cncc(CO)c4)cc1c32 [Example 36, 9-bromo-2-(5-hydroxymethyl-3-pyridylmethyloxy)-5-(3-pyridylmethyl)-4H-pyrido[3,2,1-jk]carbazol-4-one]	
> 30 µM	0.026 µM	COc1cc2c(=O)c(Cc3ccccc3)cn3c4cc(Br)ccc4c(c1)c23 [Example 39, 5-benzyl-9-bromo-2-methoxy-4H-pyrido[3,2,1-jk]carbazol-4-one]	
> 30 µM	0.009 µM	O=c1c(Cc2ccccc2)cn2c3cc(Br)ccc3c3cc(O)cc1c32 [Example 40, 5-benzyl-9-bromo-2-hydroxy-4H-pyrido[3,2,1-jk]carbazol-4-one]	
48 µM	0.36 µM	O=c1c(Cc2cccnc2)cn2c3ccccc3c3cc(O)cc1c32 [Example 41, 2-hydroxy-5-(3-pyridylmethyl)-4H-pyrido[3,2,1-jk]carbazol-4-one]	
